Measured values as given in PubChem BioAssay AID330 (DTP/NCI, 2004).
Values joined by “and” are separate entries in the source; they are usually repeats but may differ in a detail not shown here. Identical values can stand only once. Inconclusive results and toxic doses are left out.

Test system: P388 leukemia ip, CD2F1 mice, survival T/C
Experiment: NCI In Vivo Anticancer Drug Screen. Data for tumor model P388 Leukemia (intraperitoneal) in CD2F1 (CDF1) mice
Details: endpoint: median survival time, higher = longer survival
In short: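 Mice carrying the transplanted tumor received test compound or vehicle. Survival was recorded in each group, and the value is the treated-group measurement divided by that of the vehicle-treated control group.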

[1] = dose: 50.0 mg/kg/injection, schedule: Q01DX005 (ip), vehicle: saline with Tween-80
[2] = dose: 100.0 mg/kg/injection, schedule: Q01DX005 (ip), vehicle: saline with Tween-80
[3] = dose: 200.0 mg/kg/injection, schedule: Q01DX005 (ip), vehicle: saline with Tween-80

`O=c1[nH]c(=O)n(C2OC(CO)C(O)C2O)cc1F` (stereo not given) was tested, and the T/C (dose: 0.62 mg/kg/injection, schedule: Q01DX009 (ip), vehicle: saline) was 179 % of control, the T/C (dose: 0.79 mg/kg/injection, schedule: Q01DX009 (ip), vehicle: saline) was 157 % of control and the T/C (dose: 1.0 mg/kg/injection, schedule: Q01DX005 (ip), vehicle: saline) was 158 % of control. The T/C (dose: 1.57 mg/kg/injection, schedule: Q01DX009 (ip), vehicle: saline) was 169 % of control, the T/C (dose: 2.0 mg/kg/injection, schedule: Q01DX005 (ip), vehicle: saline) was 172 % of control and the T/C (dose: 2.5 mg/kg/injection, schedule: Q01DX009 (ip), vehicle: saline) was 176 % of control and 205 % of control. The T/C (dose: 3.89 mg/kg/injection, schedule: Q04DX003 (ip), vehicle: saline) was 157 % of control, the T/C (dose: 4.0 mg/kg/injection, schedule: Q01DX005 (ip), vehicle: saline) was 185 % of control and the T/C (dose: 5.0 mg/kg/injection, schedule: Q01DX009 (ip), vehicle: saline) was 189 % of control. For the same compound, the T/C (dose: 6.48 mg/kg/injection, schedule: Q04DX002 (ip), vehicle: saline) was 150 % of control, the T/C (dose: 6.48 mg/kg/injection, schedule: Q04DX003 (ip), vehicle: saline) was 159 % of control and the T/C (dose: 10.8 mg/kg/injection, schedule: Q04DX002 (ip), vehicle: saline) was 160 % of control. The T/C (dose: 10.8 mg/kg/injection, schedule: Q04DX003 (ip), vehicle: saline) was 175 % of control and the T/C (dose: 18.0 mg/kg/injection, schedule: Q04DX003 (ip), vehicle: saline) was 186 % of control.

In the case of `C=C1CC(c2ccc(S(=O)(=O)N3CCOCC3)cc2)OC1=O` (stereo not given), the T/C (dose: 25.0 mg/kg/injection, schedule: Q01DX005 (ip), vehicle: Klucel (hydroxypropylcellulose) (HPC)) was 104 % of control, the T/C (dose: 50.0 mg/kg/injection, schedule: Q01DX005 (ip), vehicle: Klucel (hydroxypropylcellulose) (HPC)) was 120 % of control and the T/C (dose: 100.0 mg/kg/injection, schedule: Q01DX005 (ip), vehicle: Klucel (hydroxypropylcellulose) (HPC)) was 113 % of control.

With `COc1ccc(-c2cc(-c3ccccc3)[nH]c2-c2ccccc2)cc1` the T/C (dose: 100.0 mg/kg/injection, schedule: Q04DX002 (ip), vehicle: saline) was 98 % of control, the T/C (dose: 200.0 mg/kg/injection, schedule: Q04DX002 (ip), vehicle: saline) was 105 % of control and the T/C (dose: 400.0 mg/kg/injection, schedule: Q04DX002 (ip), vehicle: saline) was 100 % of control.

`Nc1ccn(C2OC(CO)C3OP(=O)(O)OC32)c(=O)n1` (stereo not given) was tested, and the T/C (dose: 25.0 mg/kg/injection, schedule: Q01DX005 (ip), vehicle: water) was 101 % of control, the T/C (dose: 50.0 mg/kg/injection, schedule: Q01DX005 (ip), vehicle: water) was 100 % of control and the T/C (dose: 100.0 mg/kg/injection, schedule: Q01DX005 (ip), vehicle: water) was 101 % of control. The T/C (dose: 200.0 mg/kg/injection, schedule: Q01DX005 (ip), vehicle: water) was 101 % of control and the T/C (dose: 400.0 mg/kg/injection, schedule: Q01DX005 (ip), vehicle: water) was 100 % of control.

`C=CCNc1nc2c(s1)c(C)c(O)c1ccccc12` was tested, and the T/C (dose: 60.0 mg/kg/injection, schedule: Q01DX005 (ip), vehicle: saline with Tween-80) was 93 % of control, the T/C (dose: 120.0 mg/kg/injection, schedule: Q01DX005 (ip), vehicle: saline with Tween-80) was 96 % of control and the T/C (dose: 240.0 mg/kg/injection, schedule: Q01DX005 (ip), vehicle: saline with Tween-80) was 106 % of control.

For `CC(C)C(O)(C(=O)OCC1=CCN2CCC(O)C12)C(C)O` (stereo not given), the T/C (dose: 50.0 mg/kg/injection, schedule: Q01DX005 (ip), vehicle: saline) was 103 % of control, the T/C (dose: 100.0 mg/kg/injection, schedule: Q01DX005 (ip), vehicle: saline) was 109 % of control and the T/C (dose: 200.0 mg/kg/injection, schedule: Q01DX005 (ip), vehicle: saline) was 117 % of control.

In the case of `Cn1c2ccccc2c(=O)c2c(O)cc3c(c21)CC(C1(C)CO1)O3` (stereo not given), the T/C (dose: 2.0 mg/kg/injection, schedule: Q01DX005 (ip), vehicle: Klucel (hydroxypropylcellulose) (HPC)) was 99 % of control, the T/C (dose: 4.0 mg/kg/injection, schedule: Q01DX005 (ip), vehicle: Klucel (hydroxypropylcellulose) (HPC)) was 105 % of control and 107 % of control and the T/C (dose: 8.0 mg/kg/injection, schedule: Q01DX005 (ip), vehicle: Klucel (hydroxypropylcellulose) (HPC)) was 103 % of control and 107 % of control. The T/C (dose: 16.0 mg/kg/injection, schedule: Q01DX005 (ip), vehicle: Klucel (hydroxypropylcellulose) (HPC)) was 108 % of control and 116 % of control.

For `CCc1c(C)sc(=S)n1C(C)C(=O)OC` (stereo not given), the T/C [1] was 98 % of control, the T/C [2] was 106 % of control and the T/C [3] was 107 % of control.

With `Oc1ccccc1N=Nc1ccccc1O.[O]=[V]` the T/C (dose: 3.13 mg/kg/injection, schedule: Q01DX009 (ip), vehicle: Klucel (hydroxypropylcellulose) (HPC)) was 99 % of control, the T/C (dose: 6.25 mg/kg/injection, schedule: Q01DX009 (ip), vehicle: Klucel (hydroxypropylcellulose) (HPC)) was 107 % of control and 112 % of control and the T/C (dose: 12.5 mg/kg/injection, schedule: Q01DX009 (ip), vehicle: Klucel (hydroxypropylcellulose) (HPC)) was 100 % of control and 106 % of control. The T/C (dose: 25.0 mg/kg/injection, schedule: Q01DX009 (ip), vehicle: Klucel (hydroxypropylcellulose) (HPC)) was 90 % of control.

`CC(=O)NC(CCSSCCC(NC(C)=O)C(=O)ON1C(=O)CCC1=O)C(=O)ON1C(=O)CCC1=O` (stereo not given) was tested, and the T/C [1] was 104 % of control, the T/C [2] was 105 % of control and the T/C [3] was 104 % of control.
